The target in one experiment is human μ opioid receptor (Homo sapiens (Human), UniProt P35372). In words: Functional activity ([35S]GTPγS binding). It counts as biochemical. To be noted: [35S]GTPγS 0.080 nM, CHO cell membranes, 60 min at 30° C., filtration. On the procedure:
The [^35S]GTPγS assay measures the functional properties of a compound by quantifying the level of G-protein activation following agonist binding in studies using stably transfected cells, and is considered to be a measure of the efficacy of a compound. Membranes from CHO (Chinese Hamster Ovary) cells that stably expressed one type of the cloned human opioid receptor human were used in the experiments. In a final volume of 0.5 mL, 12 different concentrations of each test compound were incubated with 7.5 μg of CHO cell membranes that stably expressed the human p opioid receptor. The assay buffer consisted of 50 mM Tris-HCl, pH 7.4, 3 mM MgCl2, 0.2 mM EGTA, 3 μM GDP, and 100 mM NaCl. The final concentration of [35S]GTPγS was 0.080 nM. Nonspecific binding was measured by inclusion of 10 μM GTPγS. Binding was initiated by the addition of the membranes. After an incubation of 60 min at 30° C., the samples were filtered through Schleicher & Schuell No. 32 glass fiber filters. The filters were washed three times with cold 50 mM Tris-HCl, pH 7.5, and were counted in 2 mL of Ecoscint scintillation fluid.
(In general: Binding of GTPγS marks nucleotide exchange on a G protein.)

The next experiment concerns the target μ-receptor (Homo sapiens (Human), UniProt P35372). The experiment can be described thus: Receptor binding, competitive displacement of [3H]DAMGO. To be noted: 0.25 nM [3H]DAMGO, CHO cell membrane protein, 60 min at 25° C. The method, then: The Ki (binding affinity) for μ-receptor was determined with a previously described method using a competitive displacement assay (Neumeyer et al., J. Med. Chem., v. 46, p. 5162-5170, 2003). Membrane protein from CHO (Chinese Hamster Ovarian) cells that stably expressed one type of the cloned human opioid receptor were incubated with 12 different concentrations of the compound in the presence of 0.25 nM [3H]DAMGO, 0.2 nM [3H]naltrindole or 1 nM [3H]U69,593 in a final volume of 1 mL of 50 mM Tris-HCl, pH 7.5 at 25° C. Incubation times of 60 min were used for [3H]DAMGO and [3H]U69,593. Because of a slower association of [3H]naltrindole with the receptor, a 3 h incubation was used with this radioligand. Samples incubated with [3H]naltrindole also contained 10 mM MgCl2 and 0.5 mM phenylmethylsulfonyl fluoride. Nonspecific binding was measured by inclusion of 10 μM naloxone. The binding was terminated by filtering the samples through Schleicher & Schuell No. 32 glass fiber filters using a Brandel 48-well cell harvester. The filters were subsequently washed three times with 3 mL of cold 50 mM Tris-HCl, pH 7.5, and were counted in 2 mL Ecoscint A scintillation fluid. For [3H]naltrindole and [3H]U69,593 binding, the filters were soaked in 0.1% polyethylenimine for at least 60 min before use. IC50 values will be calculated by least squares fit to a logarithm-probit analysis. Ki values of unlabelled compounds were calculated from the equation Ki=(IC50)/1+S where S=(concentration of radioligand)/(Kd of radioligand) (Cheng and Prusoff, Biochemical Pharmacology, v. 22, p. 3099-3108, 1973).
For orientation: Loss of bound radioactivity is the signal in a displacement assay; it reports binding, not function.

Structures can show the parent of a compound that is named as a salt.

On to `COC1(c2ccnc(C(N)=O)c2)C2CCCC1CN(C[C@H]1C[C@@H]3C[C@@H]3C1)C2` (stereo partly drawn) [Compound 102, 4-((1R,5S,9R)-3-((1R,3r,5S)-bicyclo[3.1.0]hexan-3-ylmethyl)-9-methoxy-3-azabicyclo[3.3.1]nonan-9-yl)picolinamide hydrochloride], for which the concentration for a half-maximal effect (EC50) (commonly the midpoint of the concentration-response curve) on human μ opioid receptor lay in the range of 10 to 75 nM. Moreover, the Ki (as a rule, the dissociation constant of the complex between target and ligand, obtained from inhibition or displacement) on μ-receptor is below 1 nM.
The like results for `COC1(c2cccc(C(N)=O)c2)C2CCCC1CN(C1COC1)C2` [Compound 50, 3-((1R,5S,9r)-9-methoxy-3-(oxetan-3-yl)-3-azabicyclo[3.3.1]nonan-9-yl)benzamide (S)-2-hydroxysuccinate] were, in that order, 10 to 75 nM and 1 to 5 nM.
`COC1(c2ccnc(C(N)=O)c2)C2CCCC1CN(CCN1CCCS1(=O)=O)C2` [Compound 88, 4-((1R,5S,9r)-3-(2-(1,1-dioxidoisothiazolidin-2-yl)ethyl)-9-methoxy-3-azabicyclo[3.3.1]nonan-9-yl)picolinamide hydrochloride] returned a 50% effective concentration (EC50) at human μ opioid receptor above 75 nM. Moreover, on μ-receptor, the Ki was 1 to 5 nM.
The like results for `COC1(c2ccnc(C(N)=O)c2)C2CCCC1CN(Cc1ccncc1)C2` [Compound 69, 4-((1R,5S,9r)-9-methoxy-3-(pyridin-4-ylmethyl)-3-azabicyclo[3.3.1]nonan-9-yl)picolinamide hydrochloride] were, in that order, above 75 nM and above 5 nM.
With `COC1(c2cccc(C(N)=O)c2)C2CCCC1CN(C1CCC(F)(F)CC1)C2` [Compound 9, 3-((1R,5S,9r)-3-(4,4-difluorocyclohexyl)-9-methoxy-3-azabicyclo[3.3.1]nonan-9-yl)benzamide hydrochloride], the concentration giving a half-maximal response (EC50) at human μ opioid receptor lay within 10 to 75 nM. Also, the Ki on μ-receptor was below 1 nM.
The like results for `COC1(c2cccc(C(N)=O)c2)C2CCCC1CN(CCC(F)F)C2` (stereo not drawn) [Compound 159] were, in that order, below 10 nM and below 1 nM.
The matching figures for `COC1(c2ccnc(C(N)=O)c2)C2CCCC1CN(C1CCCC1)C2` [Compound 55, 4-((1R,5S,9r)-3-cyclopentyl-9-methoxy-3-azabicyclo[3.3.1]nonan-9-yl)picolinamide hydrochloride]: 10 to 75 nM and below 1 nM.
The like results for `COC1(c2cccc(C(N)=O)c2)C2CCCC1CN(C1CC3(CCOCC3)C1)C2` [Compound 6, 3-((1R,5S,9r)-9-methoxy-3-(7-oxaspiro[3.5]nonan-2-yl)-3-azabicyclo[3.3.1]nonan-9-yl)benzamide hydrochloride] were, in that order, below 10 nM and below 1 nM.
In the case of `COC1(c2ccnc(C(N)=O)c2)C2CCCC1CN(C1CC(F)(F)C1)C2` [Compound 82, 4-((1R,5S,9r)-3-(3,3-difluorocyclobutyl)-9-methoxy-3-azabicyclo[3.3.1]nonan-9-yl)picolinamide hydrochloride], the EC50 on human μ opioid receptor was 10 to 75 nM. Besides, on μ-receptor, the Ki lay in the range of 1 to 5 nM.
The matching figures for `COC1(c2cccc(C(N)=O)c2)C2CCCC1CN(CC1(F)CC1)C2` [Compound 40, 3-((1R,5S,9r)-3-((1-fluorocyclopropyl)methyl)-9-methoxy-3-azabicyclo[3.3.1]nonan-9-yl)benzamide hydrochloride]: 10 to 75 nM and below 1 nM.
The like results for `COC1(c2ccnc(C(N)=O)c2)C2CCCC1CN(CCN1CCNC1=O)C2` [Compound 85, 4-((1R,5S,9r)-9-methoxy-3-(2-(2-oxoimidazolidin-1-yl)ethyl)-3-azabicyclo[3.3.1]nonan-9-yl)picolinamide hydrochloride] were, in that order, 10 to 75 nM and 1 to 5 nM.
As to `COC1(c2ccnc(C(N)=O)c2)C2CCCC1CN(C1CC3(COC3)C1)C2` [Compound 81, 4-((1R,5S,9r)-9-methoxy-3-(2-oxaspiro[3.3]heptan-6-yl)-3-azabicyclo[3.3.1]nonan-9-yl)picolinamide (S)-2-hydroxysuccinate], at human μ opioid receptor, the half-maximal effective concentration (EC50) is 10 to 75 nM. Further, on μ-receptor, the Ki was below 1 nM.
The matching figures for `COC1(c2ccc(C(N)=O)s2)C2CCCC1CN(C1CN(C(C)=O)C1)C2` [Compound 114, 5-((1R,5S,9r)-3-(1-acetylazetidin-3-yl)-9-methoxy-3-azabicyclo[3.3.1]nonan-9-yl)thiophene-2-carboxamide hydrochloride]: above 75 nM and above 5 nM.
The like results for `COC1(c2cccc(C(N)=O)c2)C2CCCC1CN(C[C@H]1CCOC1)C2` (single isomer, unassigned) [Compound 148, hydrochloride] were, in that order, below 10 nM and below 1 nM.
At human μ opioid receptor, `COC1(c2cccc(C(N)=O)c2)C2CCCC1CN(C[C@@H]1[C@@H]3COC[C@@H]31)C2` (stereo partly drawn) [Compound 175] had an EC50 of 10 to 75 nM. Further, the Ki at μ-receptor was below 1 nM.
On human μ opioid receptor, `COC1(c2ccnc(C(N)=O)c2)C2CCCC1CN(C1CCC(F)(F)CC1)C2` [Compound 7, 4-((1R,5S,9r)-3-(4,4-difluorocyclohexyl)-9-methoxy-3-azabicyclo[3.3.1]nonan-9-yl)picolinamide hydrochloride] registered an EC50 above 75 nM. On μ-receptor, this compound came in with an inhibitory constant (Ki) of 1 to 5 nM.
The like results for `COC1(c2ccnc(C(N)=O)c2)C2CCCC1CN(C1CCCOC1)C2` [Compound 111, 4-((1R,5S,9r)-9-methoxy-3-(tetrahydro-2H-pyran-3-yl)-3-azabicyclo[3.3.1]nonan-9-yl)picolinamide hydrochloride] were, in that order, above 75 nM and above 5 nM.
`COC1(c2ccnc(C(N)=O)c2)C2CCCC1CN([C@H]1C[C@H]3C[C@H]3C1)C2` (stereo partly drawn) [Compound 94, 4-((1R,5S,9R)-3-((1R,3s,5S)-bicyclo[3.1.0]hexan-3-yl)-9-methoxy-3-azabicyclo[3.3.1]nonan-9-yl)picolinamide hydrochloride]: on human μ opioid receptor, the concentration giving a half-maximal response (EC50) was in the range of 10 to 75 nM. The Ki on μ-receptor is below 1 nM.
The like results for `COC1(c2cccc(C(N)=O)c2)C2CCCC1CN([C@@H]1CCCOC1)C2` (single isomer, unassigned) [Compound 141, hydrochloride] were, in that order, 10 to 75 nM and below 1 nM.
At human μ opioid receptor, `CCN1CC2CCCC(C1)C2(OC)c1ccnc(C(N)=O)c1` [Compound 66, 4-((1R,5S,9r)-3-ethyl-9-methoxy-3-azabicyclo[3.3.1]nonan-9-yl)picolinamide hydrochloride] showed an EC50 of 10 to 75 nM. This compound also yielded a Ki on μ-receptor of 1 to 5 nM.
In the case of `COC[C@@H](C)N1CC2CCCC(C1)C2(OC)c1ccnc(C(N)=O)c1` (single isomer, unassigned) [Compound 62, hydrochloride], the EC50 at human μ opioid receptor was above 75 nM. Besides, the Ki at μ-receptor was above 5 nM.
The like results for `COC1(c2cccc(C(N)=O)c2)C2CCCC1CN(CCS(C)(=O)=O)C2` [Compound 150, 3-((1R,5S,9r)-9-methoxy-3-(2-(methylsulfonyl)ethyl)-3-azabicyclo[3.3.1]nonan-9-yl)benzamide hydrochloride] were, in that order, above 75 nM and 1 to 5 nM.
For the compound `COC1(c2cccc(C(N)=O)c2)C2CCCC1CN(C1CC3CCC(C1)O3)C2` (single isomer, unassigned) [Compound 14, hydrochloride], on human μ opioid receptor, the concentration giving a half-maximal response (EC50) was above 75 nM. This compound also had a Ki on μ-receptor of 1 to 5 nM.
The like results for `COC1(c2ccnc(C(N)=O)c2)C2CCCC1CN(Cc1cnco1)C2` (stereo not drawn) [Compound 115, hydrochloride] were, in that order, 10 to 75 nM and 1 to 5 nM.

Values taken from patent US10604489B2, “Compounds for the treatment of pain” (priority 2018, dated 2020).
